In US10416153B2, “Chemical fluorescent probes for detecting biofilms” (priority 2015, dated 2019):

What was measured:
purified amyloid = purified amyloid (Pseudomonas aeruginosa, UniProt Q9I2F0); assay: Surface plasma resonance assay with purified amyloid immobilized on chips; type: binding
Description: In a biofilm screening, two different types of biofilms (biofilm versus amyloid deficient biofilm) were treated with compounds and hits were identified by selective staining of biofilms containing amyloid structures. Thus, the binding affinity of four compounds with the purified amyloid subunit (fibril) protein was validated by surface plasma resonance assay. The subunit protein was immobilized on chips and each of compounds was flowed continuously. Thioflavin T, BDN1 B2 and BDNAC3 E6 were tested with hit compounds. […] (A) TEM images of purified amyloid proteins. Scale bar=400 nm. (B) Surface plasma resonance assay of four amyloid targeting compounds with purified amyloid.
Amyloids were prepared in HEPES buffer (0.01 M HEPES, pH 7.4, 0.15 M NaCl, 3 mM EDTA and 0.005% P20). Amyloid fibers were fragmented with sonication at 80 Hz for 10 s and centrifuged at 14 000 g for 30 s to remove any large fibers. Concentrate (40 μL) was mixed with 10 mM sodium acetate (120 μL), pH 5.5 right before immobilization.
SPR experiments were performed at 25° C. using Biacore T-200 biosensor with research grade CM5-S sensor chips (Biacore, GE Healthcare). Carboxymethylated CM5-S chips were activated using 70 μL of 0.2 M 1-ethyl-3-[3-(dimethylamino)propyl] carbodiimide hydrochloride (EDC) and 0.05 M N-hydroxysuccinimide (NHS) in a 1:1 ratio. Amyloid in sodium acetate solution (100 μL) was injected over the activated surface until an immobilization level of 7700 response units (RU) was reached. Ethanolamine hydrochloride (1.0 M), pH 8.5 was injected across the surface for 5 min to block any residual activated-unreacted carboxyl groups. Compounds were dissolved into HEPES buffer containing final concentration of 5% DMSO and serially diluted to 340 nM, 1.03, 3.09, 9.26, 27.78, 83.33 μM. Tht+ was prepared similarly as positive control. Replicates of the diluted compounds were injected across a unmodified flow cell and amyloid-immobilized flow cell in a serial manner for association phase of 60 s followed by dissociation phase of 5 min. […] The chip surface was rinsed using HEPES buffer. All sensorgrams were double-referenced with responses from unmodified channel and blank HEPES buffer injections. Equilibrium responses from the compounds were plotted against logarithmic of their corresponding concentrations where the binding affinities were calculated from 50% saturation.
First batch of screening was done under varying amyloid expression conditions for specifically isolating amyloid targeting compounds and four compounds were isolated from cell based screening. […] Finally, four compounds were examined by surface plasma resonance assay whether those have binding specificity with putative target, namely amyloid. Four hit compounds were examined with thioflavin T and two negative controls on chips after immobilizing purified amyloid.

P. aeruginosa (PAO1-GFP) = assay: Eye infection model, imaging of infected cornea under TRITC channel; type: in vivo; details: mouse cornea infected with PAO1-GFP for 2 days, 10 minutes incubation with compound
Description: (A) Propagation of Pseudomonas aeruginosa (PAO1-GFP) after infecting into mouse eyes. GFP signals were detected after 12 hours later after infecting bacteria and signals were fully saturated after 24 hours later; Scale bar=2 mm. (B) Tests of amyloid targeting compounds in eye infection models. The model was generated by inoculation of a GFP tagged P. aeruginosa PAO1 strain into the eye after making scratches in cornea. Images were taken in bright field and TRITC from ketamine/xylazine anesthetized mice and compounds signals were examined under TRITC channel after incubation with compounds for 10 minutes at room temperature. Scale bar=2 mm.
P. aeruginosa (PAO1-GFP) was grown at 37° C. in ABTGC media for 16 h. 500 μL of cultured PAO1-GFP was transferred to 1.5 mL Eppendorf tube and centrifuged at 14 000 g for 3 min. Supernatant was removed and pellet was washed with PBS buffer 3 times. Finally, pellet was resuspended in 250 μL of PBS buffer.
Mice were anesthetized ketamine/xylazine by peritoneal injection before scratches were made in cornea with blade. PAO1-GFP (1 μL, 2×107˜10^8 CFU) dissolved in PBS buffer was treated in left eye and PBS buffer was treated in right eye. P. aeruginosa inoculated mice were incubated for 2 days before in vivo experiments. Animal handling was in accordance with the Institutional Aminal Care and Use Committee of Singapore Bioimaging Consortium (Agency of Science, Technology and Research, Singapore).
Biofilm is stained by amyloid targeting compounds through interacting with FAP proteins which is one of the components for intact biofilm. Thus, amyloid targeting compounds were tested in eye infection model which is one of the naturally reported symptoms of P. aeruginosa containing biofilms. Eye infection model was generated in black mouse. […] GFP signals were detected after 12 hours incubation with P. aeruginosa-GFP bacteria.
Fluorescence signals under TRITC channel were checked to confirm infection on cornea and amyloid compounds were tested under TRITC channel after incubation for 10 minutes. […]

[1] = tested on: P. aeruginosa biofilm (PAO1-GFP); assay: Mouse implant model, silicone tubes coated with PAO1-GFP biofilm; type: in vivo, BALB/c mice; details: 100 μM (200 μL) injected via the peritoneal cavity, 2 h before recovering implants; listed as CDy11
Text: (§1) CLSM images of a GFP tagged P. aeruginosa PAO1 strain colonizing silicone implants after removal from BALB/c mice at day 1 post insertion. Green fluorescent areas represent P. aeruginosa. Insertion of silicone tube into mice which was precoated with (A) PAO1Δfap-GFP and (B) PAO1-GFP biofilms. Images of the microcolonies adhering to the silicone implants with CDy11. Only PAO1-GFP biofilms coated silicone tube was stained by CDy11; Scale bars=10 μm.
(§2) One bacterial colony (PAO1-GFP) was picked up from the plate to inoculate an overnight culture in LB (Luria Broth) media in 37° C. incubator with 110 rpm/min for 20 h. Silicone tubes (Ole Dich) were cut with a thickness of 4 mm and were sterilized in 0.5% NaClO for overnight. Next day, 25 mL of overnight cultured media was transferred to 50 mL conical tube and pellet was collected by centrifuging at 3000 rpm for 10 min. Subsequently, pellet was suspended with 2 mL of LB media before optical density was observed under 600 nm wavelength.
(§3) Sterilized silicone was washed twice in 0.9% NaCl solution. Silicone tubes (8 pieces) in 50 mL flask were incubated with 10 mL of diluted bacteria (OD600=0.1) in 0.9% NaCl solution in rotationary shaker at 37° C. with 110 rpm/min for 20 h. […]
(§4) All silicone tubes were collected after 2 h incubation to observe CDy11 fluorescence of the inner surface of the silicone tube by means of laser confocal scanning microscopy. […]

[2] = tested on: PAO1Δfap-GFP strain biofilm; assay: Mouse implant model, silicone tubes coated with PAO1Δfap-GFP biofilm; type: in vivo, BALB/c mice; details: 100 μM (200 μL) injected via the peritoneal cavity, 2 h before recovering implants
Text: as §1, §2, §3, §4

Immune cells = assay: Mouse implant model, silicone tubes without P. aeruginosa precoating; type: in vivo, BALB/c mice; details: same amount injected via the peritoneal cavity; data not shown
Description: After anesthesia of mice with ketamine/xylazine mix by intraperitoneal injection, the mouse was placed ventral side up on plate. Fur was clipped and the skin was swabbed with 70% ethanol. An incision of approximately 0.5-1 cm was made in the left groin area. Then an implant prepared the day before was inserted into peritoneal cavity via the incision. The incision was closed with a suture and healed on a warm pad at 26-28° C.
The inventors also applied a mouse implant model to test the capacity of CDy11 (BDNAC3 D8) to detect P. aeruginosa biofilms in a surgical format. Silicone tubes were precolonized by bacteria and subsequently inserted into the peritoneal cavity 1 day before the experiment. BALB/c mice were assigned to each of the two groups and 100 μM CDy11 (200 μL) was injected into the mice via the peritoneal cavity 2 h before recovering the implants. As a mock control, a similar volume of buffer was injected into the second set of mice. In addition, CDy11 was injected into a set of mice which had been installed with uncolonized silicone tubes in the peritoneal cavity.
All silicone tubes were collected after 2 h incubation to observe CDy11 fluorescence of the inner surface of the silicone tube by means of laser confocal scanning microscopy. […] The silicone tubes without P. aeruginosa precoating were also examined by injection of same amount of CDy11. […]

Chain of purified amyloid (Q9I2F0 25-340): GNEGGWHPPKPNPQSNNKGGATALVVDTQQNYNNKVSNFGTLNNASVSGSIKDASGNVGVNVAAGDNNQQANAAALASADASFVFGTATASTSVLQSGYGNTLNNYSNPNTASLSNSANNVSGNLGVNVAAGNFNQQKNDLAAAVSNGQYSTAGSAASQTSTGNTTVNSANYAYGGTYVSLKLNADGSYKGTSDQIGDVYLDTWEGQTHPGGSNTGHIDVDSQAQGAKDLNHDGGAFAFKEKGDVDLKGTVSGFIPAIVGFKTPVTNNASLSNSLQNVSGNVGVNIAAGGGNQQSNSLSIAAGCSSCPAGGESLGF

Compound | Kd (purified amyloid) | visualization of infected eyes (P. aeruginosa (PAO1-GFP)) | staining of PAO1-GFP biofilm coated silicone tube [1] | staining of PAO1Δfap-GFP biofilm coated silicone tube [2] | staining of immune cells in silicone tubes without P. aeruginosa precoating (Immune cells)
Cc1cc(/C=C/c2ccc(-c3ccc([N+](=O)[O-])cc3)o2)n2c1C(c1ccc(N)cc1)=C1C=CC=[N+]1[B-]2(F)F [BDN3 G7] | 28 ± 5 µM | visualized | – | – | –
COc1cc(/C=C/c2cc(C)c3n2[B-](F)(F)[N+]2=CC=CC2=C3c2ccc(N)cc2)c(Br)c(Br)c1O [BDN3 F3] | 16 ± 1 µM | – | – | – | –
COc1ccc(/C=C/c2cc(C)c3n2[B-](F)(F)[N+]2=CC=CC2=C3c2ccc(NC(C)=O)cc2)c(F)c1 [BDNAC3 D8] | 29 ± 2 µM | visualized | specifically stained | not stained | not stained
COc1cc(Cl)cc(/C=C/c2cc(C)c3n2[B-](F)(F)[N+]2=CC=CC2=C3c2ccc(N)cc2)c1OC [BDN2 H2] | 61 ± 3 µM | visualized | – | – | –
Cc1ccc2c(c1)sc(-c1ccc(N(C)C)cc1)[n+]2C [thioflavin T, reference compound] | 85 ± 7 µM | – | – | – | –
